Measured values reported in the supplement of paper PMC11208160.

Assay: recombinant barcode read abundance after kanamycin selection (control-corrected) (log10(CPM+1)); higher = more efficient recombination; sequences stand for … in AGTGCAGAGAAAATCGGCCAGTTTTCTCTGCCTGCAGTCCGCATGCCGT…AGATTTATGCAGCGGACTGCCTTTCTCCCAAAGTGATAAACCGGACAGTATCATGGACCGGTTTTCCCGGTAATCCGTATTTGCAAGGTTGGTTTCACT; site = the 11-nt target
Outline: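 Pooled E. coli screen pairing targets with IS621 bridge RNA target-binding loops. Each oligo (promoter, target, barcode, J23119-driven first 104 bridge RNA bases) was Gibson-cloned into a vector with the remaining 73 bp and T7-inducible recombinase, then co-electroporated with a donor plasmid. Two replicates each were plated on chloramphenicol/ampicillin LB agar (control) or chloramphenicol/ampicillin/kanamycin with 0.1 mM IPTG. Recombination efficiency is recombinant-junction barcode counts as CPM, averaged, control-corrected, reported as log10(CPM+1).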
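Note: IS621 recombinase and bridge RNA in Escherichia coli cells.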

Sequence	recombinant barcode read abundance (log10)
CGTTCTACTTGGGTTCTAACCTGTTGCCT (site CGTTCTACTAG)	0.00743
CGTTGATCTTGGGTTCTAACCTGTTGCCT (site CGTTGATCTAG)	0.234
CGTTGATCTTGGGTTCTAACCTGTTGCCT (site CGTTGTTCTAG)	0.0674
CGTTGTCCTTGGGTTCTAACCTGTTGCAA (site CCTTGTCCTCT)	0.00991
CGTTGTCCTTGGGTTCTAACCTGTTGCAA (site CGTTGTCCTTT)	0.347
CGTTGTTCTTGGGTTCTAACCTGTTGCCT (site CGTTGATCTAG)	0.0873
CGTTGTTCTTGGGTTCTAACCTGTTGCCT (site CGTTGTTCTAG)	0.163
CTAAAAGCTTGGGTTCTAACCTGTTGCCA (site CTAAAAGCTTG)	0.493
CTAAAAGCTTGGGTTCTAACCTGTTGCCA (site TACTCCTCTCC)	0.0219
CTAAAGTCTTGGGTTCTAACCTGTTGCAC (site CTAAAGTCTGG)	0.0578
CTAAAGTCTTGGGTTCTAACCTGTTGCAC (site CTAAAGTCTGT)	1.51
CTAAAGTCTTGGGTTCTAACCTGTTGCCC (site CTAAAGTCTGG)	0.4
CTAAAGTCTTGGGTTCTAACCTGTTGCCC (site CTAAAGTCTGT)	0.136
CTAAATACTTGGGTTCTAACCTGTTGCTT (site CTAAATACTAA)	0.383
CTAAATACTTGGGTTCTAACCTGTTGCTT (site CTATATACTAA)	0.107
CTAACCTCTTGGGTTCTAACCTGTTGCAT (site CTAACCTCTAT)	2.1
CTAACCTCTTGGGTTCTAACCTGTTGCAT (site CTACCCTCTAT)	0.0596
CTAACCTCTTGGGTTCTAACCTGTTGCAT (site CTAGCCTCTAT)	0.151
CTAACCTCTTGGGTTCTAACCTGTTGCAT (site CTATCCTCTAT)	0.0287
CTAACTACTTGGGTTCTAACCTGTTGCTT (site AGTTGGCCTCT)	0.41
CTAACTACTTGGGTTCTAACCTGTTGCTT (site CTAACTACTAA)	0.252
CTAACTCCTTGGGTTCTAACCTGTTGCCT (site ATACCTCCTAG)	0.242

Sequence	recombinant barcode read abundance (log10)
CTAACTCCTTGGGTTCTAACCTGTTGCCT (site CTAACTCCTAG)	0.401
CTAACTCCTTGGGTTCTAACCTGTTGCTG (site CTAACTCCTCA)	0.12
CTAACTCCTTGGGTTCTAACCTGTTGCTG (site CTAACTGCTCC)	0.524
CTAACTGCTTGGGTTCTAACCTGTTGCGG (site CTAACTCCTCA)	0.0417
CTAACTGCTTGGGTTCTAACCTGTTGCGG (site CTAACTGCTCC)	0.633
CTAACTGCTTGGGTTCTAACCTGTTGCGT (site CTAACTGCTAC)	0.96
CTAACTGCTTGGGTTCTAACCTGTTGCGT (site TCCCAAACTGT)	0.177
CTAAGAACTTGGGTTCTAACCTGTTGCCT (site CTAAGAACTAA)	0.0228
CTAAGAACTTGGGTTCTAACCTGTTGCCT (site CTAAGAACTAC)	1.05
CTAAGAACTTGGGTTCTAACCTGTTGCCT (site CTAAGAACTAG)	0.604
CTAAGAACTTGGGTTCTAACCTGTTGCCT (site CTAAGAACTAT)	0
CTAAGATCTTGGGTTCTAACCTGTTGCCT (site CAAAGATCTAG)	0.0172
CTAAGATCTTGGGTTCTAACCTGTTGCCT (site CCAAGATCTAG)	0.119
CTAAGATCTTGGGTTCTAACCTGTTGCCT (site CGAAGATCTAG)	0.0614
CTAAGATCTTGGGTTCTAACCTGTTGCCT (site CTAAGATCTAG)	0.169
CTAAGCTCTTGGGTTCTAACCTGTTGCTA (site CTAAGCTCTAA)	0.0436
CTAAGCTCTTGGGTTCTAACCTGTTGCTA (site CTAAGCTCTCA)	0.0617
CTAAGCTCTTGGGTTCTAACCTGTTGCTA (site CTAAGCTCTGA)	0.172
CTAAGCTCTTGGGTTCTAACCTGTTGCTA (site CTAAGCTCTTA)	0.939
CTAAGGACTTGGGTTCTAACCTGTTGCTA (site CGAAGGACTTA)	0.0114
CTAAGGACTTGGGTTCTAACCTGTTGCTA (site CTAAGGACTTA)	1.11
CTAAGGCCTTGGGTTCTAACCTGTTGCAT (site AAGTCCTCTCA)	0.428

Sequence	recombinant barcode read abundance (log10)
CTAAGGCCTTGGGTTCTAACCTGTTGCAT (site CTAAGGCCTAT)	1.85
CTAAGGGCTTGGGTTCTAACCTGTTGCTG (site CTAAGGACTAA)	0.314
CTAAGGGCTTGGGTTCTAACCTGTTGCTG (site CTAAGGGCTCA)	0.772
CTAAGGTCTTGGGTTCTAACCTGTTGCGT (site CTAAGGTCTAA)	0.31
CTAAGGTCTTGGGTTCTAACCTGTTGCGT (site CTAAGGTCTAC)	2.69
CTAAGGTCTTGGGTTCTAACCTGTTGCGT (site CTAAGGTCTAG)	0.209
CTAAGGTCTTGGGTTCTAACCTGTTGCGT (site CTAAGGTCTAT)	1.9
CTAAGGTCTTGGGTTCTAACCTGTTGCTT (site CTAAGGTCTAA)	0.462
CTAAGGTCTTGGGTTCTAACCTGTTGCTT (site CTAAGGTCTAC)	0.132
CTAAGGTCTTGGGTTCTAACCTGTTGCTT (site CTAAGGTCTAG)	0.186
CTAAGGTCTTGGGTTCTAACCTGTTGCTT (site CTAAGGTCTAT)	0.886
CTAAGTACTTGGGTTCTAACCTGTTGCAG (site CTAAGTACTCT)	1.56
CTAAGTACTTGGGTTCTAACCTGTTGCAG (site CTAATTACTTT)	0.56
CTAATATCTTGGGTTCTAACCTGTTGCAT (site AATGGTCCTTG)	0.105
CTAATATCTTGGGTTCTAACCTGTTGCAT (site CTAATATCTAT)	1.26
CTAATCCCTTGGGTTCTAACCTGTTGCAT (site CATATCCCTAT)	0.0276
CTAATCCCTTGGGTTCTAACCTGTTGCAT (site CTAATCCCTAT)	1.59
CTAATGGCTTGGGTTCTAACCTGTTGCCT (site CTAATAGCTAG)	0.176
CTAATGGCTTGGGTTCTAACCTGTTGCCT (site CTAATGGCTAG)	0.178
CTACAACCTTGGGTTCTAACCTGTTGCAG (site CTACAACCTCT)	2.02
CTACAACCTTGGGTTCTAACCTGTTGCAG (site TGGACTACTGA)	0.25
CTACACACTTGGGTTCTAACCTGTTGCTA (site CTACACACTGA)	0.00924
